In patent publication US8653089B2, “Heterocyclic compounds and methods of use” (F. Hoffmann-La Roche AG, priority 2011, dated 2014):

Tested on: production of CD69 by B lymphocytes in human whole blood activated by crosslinking surface IgM
Assay: CD69 human whole blood assay (Example 903), FACS
Type: cell-based
Conditions: Homo sapiens, Lymphocyte, B lymphocytes activated with goat F(ab')2 anti-human IgM, read-out: CD69 Hu Blood FACS IC50
Source text: There is good evidence that B-cells play a key role in the pathogenesis of autoimmune and/or inflammatory disease. Protein-based therapeutics that deplete B cells such as Rituxan are effective against autoantibody-driven inflammatory diseases such as rheumatoid arthritis (Rastetter et al. (2004) Annu Rev Med 55:477). CD69 is the early activation marker in leukocytes including T cells, thymocytes, B cells, NK cells, neutrophils, and eosinophils. The CD69 human whole blood assay (Example 903) determines the ability of compounds to inhibit the production of CD69 by B lymphocytes in human whole blood activated by crosslinking surface IgM with goat F(ab′)2 anti-human IgM.

**Q.** With `Cc1nc(N)nc(N[C@@H](C)c2nc3ccc(F)cc3n2-c2ccccc2)c1C#N` [Example 328, 2-Amino-4-[(S)-1-(6-fluoro-1-phenyl-1H-benzoimidazol-2-yl)-ethylamino]-6-methyl-pyrimidine-5-carbonitrile] as the compound, how does the IC50 read?
**A.** 3.44 nM

**Q.** With `C[C@H](Nc1ncnc(N)c1C#N)c1nc2ccc(F)c(C#N)c2n1-c1ccccc1` [Example 330, 2-[(S)-1-(6-Amino-5-cyano-pyrimidin-4-ylamino)-ethyl]-5-fluoro-3-phenyl-3H-benzoimidazole-4-carbonitrile] as the compound, how does the IC50 read?
**A.** 12.9 nM

**Q.** For `C[C@H](Nc1ncnc2[nH]cnc12)c1nc2ccc(F)cc2n1-c1ccncn1` [Example 332, [(S)-1-(6-Fluoro-1-pyrimidin-4-yl-1H-benzoimidazol-2-yl)-ethyl]-(9H-purin-6-yl)-amine], which IC50 is on record?
**A.** 81.7 nM

**Q.** With `Cc1nc(N)nc(N[C@@H](C)c2nc3ccc(F)cc3n2-c2ccccn2)c1C#N` [Example 333, 2-Amino-4-[(S)-1-(6-fluoro-1-pyridin-2-yl-1H-benzoimidazol-2-yl)-ethylamino]-6-methyl-pyrimidine-5-carbonitrile] as the compound, how does the IC50 read?
**A.** 4.92 nM

**Q.** Which IC50 does the source give for `C[C@H](Nc1ncnc(N)c1C#N)c1nc2cccnc2n1-c1ccccc1` [Example 337, 4-Amino-6-[(S)-1-(3-phenyl-3H-imidazo[4,5-b]pyridin-2-yl)-cthylamino]-pyrimidine-5-carbonitrile] here?
**A.** 96.6 nM

**Q.** `COc1c(F)ccc2nc([C@H](C)Nc3ncnc(N)c3C#N)n(-c3ccccc3)c12` [Example 339, 4-Amino-6-[(S)-1-(6-fluoro-7-methoxy-1-phenyl-1H-benzoimidazol-2-yl)-ethylamino]-pyrimidine-5-carbonitrile] was tested. Which IC50 did it give?
**A.** 4.93 nM

**Q.** Which IC50 does the source give for `Cc1nccc(N[C@@H](C)c2nc3ccc(F)cc3n2-c2ccccc2)c1C#N` [Example 340, 4-[(S)-1-(6-Fluoro-1-phenyl-1H-benzoimidazol-2-yl)-ethylamino]-2-methyl-nicotinonitrile] here?
**A.** 606 nM

**Q.** With `C[C@H](Nc1ncnc(N)c1C#N)c1nc2ccc(F)c(CC#N)c2n1-c1ccccc1` [Example 345, 4-Amino-6-[(S)-1-(7-cyanomethyl-6-fluoro-1-phenyl-1H-benzoimidazol-2-yl)-ethylamino]-pyrimidine-5-carbonitrile] as the compound, how does the IC50 read?
**A.** 2.91 nM

**Q.** With `C[C@H](Nc1ncnc(N)c1C#N)c1nc2ccc(F)c(C#N)c2n1-c1cncc(F)c1` [Example 347, 2-[(S)-1-(6-Amino-5-cyano-pyrimidin-4-ylamino)-ethyl]-5-fluoro-3-(5-fluoro-pyridin-3-yl)-3H-benzoimidazole-4-carbonitrile] as the compound, how does the IC50 read?
**A.** 158 nM

**Q.** `CC[C@H](Nc1ncnc(N)c1C#N)c1nc2ccc(F)cc2n1-c1cncc(F)c1` [Example 350, 4-Amino-6-{(S)-1-[6-fluoro-1-(5-fluoro-pyridin-3-yl)-1H-benzoimidazol-2-yl]-propylamino}-pyrimidine-5-carbonitrile] was tested. Which IC50 did it give?
**A.** 83.9 nM

**Q.** `C[C@H](Nc1ncnc(N)c1C#N)c1nc2ccc(F)cc2n1-c1ccncc1` [Example 354, 4-Amino-6-[(S)-1-(6-fluoro-1-pyridin-4-yl-1H-benzoimidazol-2-yl)-ethylamino]-pyrimidine-5-carbonitrile] was tested. Which IC50 did it give?
**A.** 48.4 nM

**Q.** Which IC50 does the source give for `N#Cc1c(N)ncnc1NCc1nc2ccc(F)cc2n1-c1ccccc1` [Example 371, 4-amino-6-((6-fluoro-1-phenyl-1H-benzo[d]imidazol-2-yl)methylamino)pyrimidine-5-carbonitrile] here?
**A.** 514 nM

**Q.** How did the IC50 turn out when `CC(C)N1CC(n2c([C@H](C)Nc3ncnc4[nH]cnc34)nc3ccc(F)cc32)C1` [Example 380, N-[(1S)-1-[6-fluoro-1-(1-isopropylazetidin-3-yl)benzimidazol-2-yl]ethyl]-9H-purin-6-amine] was run?
**A.** 58.2 nM

**Q.** `C[C@H](Nc1ncnc2[nH]cnc12)c1nc2ccc(F)c(C(=O)N3CCOCC3)c2n1C1CC1` [Example 389, [3-cyclopropyl-5-fluoro-2-[(1S)-1-(9H-purin-6-ylamino)ethyl]benzimidazol-4-yl]-morpholino-methanone] was tested. Which IC50 did it give?
**A.** 11.9 nM

**Q.** With `C[C@H](Nc1ncnc2[nH]cnc12)c1nc2ccc(F)cc2n1[C@H]1C[C@@H](O)C1` [Example 390, 3-[6-fluoro-2-[(1S)-1-(9H-purin-6-ylamino)ethyl]benzimidazol-1-yl]cyclobutanol] as the compound, how does the IC50 read?
**A.** 146 nM

**Q.** With `C[C@H](Nc1ncnc(N)c1C#N)c1nc2ccc(F)c(C(=O)N3CCOCC3)c2n1C1CC1` [Example 401, 4-amino-6-[[(1S)-1-[1-cyclopropyl-6-fluoro-7-(morpholine-4-carbonyl)benzimidazol-2-yl]ethyl]amino]pyrimidine-5-carbonitrile] as the compound, how does the IC50 read?
**A.** 23.2 nM

**Q.** For `C[C@H](Nc1ncnc(N)c1C#N)c1nc2ccc(F)cc2n1-c1ccn(C)n1` [Example 402, 4-amino-6-[[(1S)-1-[6-fluoro-1-(1-methylpyrazol-3-yl)benzimidazol-2-yl]ethyl]amino]pyrimidine-5-carbonitrile], which IC50 is on record?
**A.** 64.7 nM

**Q.** For `C[C@H](Nc1ncnc2[nH]cnc12)c1nc2ccc(F)cc2n1-c1ccn(C)n1` [Example 403, N-[(1S)-1-[6-fluoro-1-(1-methylpyrazol-3-yl)benzimidazol-2-yl]ethyl]-9H-purin-6-amine], which IC50 is on record?
**A.** 163 nM

**Q.** For `C[C@H](Nc1ncnc(N)c1C#N)c1nc2ccc(F)c3c2n1CCCC3` [Example 406, 4-Amino-6-[(S)-1-(5-fluoro-6,7,8,9-tetrahydro-2,9a-diazabenzo[cd]azulen-1-yl)ethylamino]pyrimidine-5-carbonitrile], which IC50 is on record?
**A.** 32.6 nM

**Q.** How did the IC50 turn out when `CC(C)n1c([C@H](C)Nc2ncnc(N)c2C#N)nc2ccc(F)c(-c3ccccn3)c21` [Example 408, 4-amino-6-[[(1S)-1-[6-fluoro-1-isopropyl-7-(2-pyridyl)benzimidazol-2-yl]ethyl]amino]pyrimidine-5-carbonitrile] was run?
**A.** 163 nM

**Q.** `CC(C)n1c([C@H](C)Nc2ncnc3[nH]cnc23)nc2ccc(F)c(-c3ccccn3)c21` [Example 409, N-[(1S)-1-[6-fluoro-1-isopropyl-7-(2-pyridyl)benzimidazol-2-yl]ethyl]-9H-purin-6-amine] was tested. Which IC50 did it give?
**A.** 64.2 nM

**Q.** For `C[C@H](Nc1ncnc(N)c1C#N)c1nc2ccc(F)c(-c3ccccn3)c2n1C` [Example 411, 4-amino-6-[[(1S)-1-[6-fluoro-1-methyl-7-(2-pyridyl)benzimidazol-2-yl]ethyl]amino]pyrimidine-5-carbonitrile], which IC50 is on record?
**A.** 895 nM

**Q.** For `C[C@H](Nc1ncnc(N)c1C#N)c1nc2ccc(F)c(-c3ccccc3)c2n1C1CC1` [Example 415, 4-amino-6-[[(1S)-1-(1-cyclopropyl-6-fluoro-7-phenyl-benzimidazol-2-yl)ethyl]amino]pyrimidine-5-carbonitrile], which IC50 is on record?
**A.** 224 nM

**Q.** Which IC50 does the source give for `C[C@H](Nc1ncnc(N)c1C#N)c1nc2ccc(F)cc2n1-c1ccnn1C` [Example 416, 4-amino-6-[[(1S)-1-[6-fluoro-1-(2-methylpyrazol-3-yl)benzimidazol-2-yl]ethyl]amino]pyrimidine-5-carbonitrile] here?
**A.** 67.8 nM

**Q.** `C[C@H](Nc1ncnc2[nH]cnc12)c1nc2ccc(F)cc2n1-c1ccnn1C` [Example 417, N-[(1S)-1-[6-fluoro-1-(2-methylpyrazol-3-yl)benzimidazol-2-yl]ethyl]-9H-purin-6-amine] was tested. Which IC50 did it give?
**A.** 140 nM

**Q.** How did the IC50 turn out when `C[C@H](Nc1ncnc(N)c1C#N)c1nc2ccc(F)cc2n1-c1cnn(C)c1` [Example 418, 4-amino-6-[[(1S)-1-[6-fluoro-1-(1-methylpyrazol-4-yl)benzimidazol-2-yl]ethyl]amino]pyrimidine-5-carbonitrile] was run?
**A.** 107 nM

**Q.** How did the IC50 turn out when `C[C@H](Nc1ncnc2[nH]cnc12)c1nc2ccc(F)cc2n1-c1cnn(C)c1` [Example 419, N-[(1S)-1-[6-fluoro-1-(1-methylpyrazol-4-yl)benzimidazol-2-yl]ethyl]-9H-purin-6-amine] was run?
**A.** 43.3 nM

**Q.** `C[C@H](Nc1ncnc(N)c1C#N)c1nc2ccc(F)c(-c3ccccn3)c2n1C1CC1` [Example 442, 4-Amino-6-[(S)-1-(1-cyclopropyl-6-fluoro-7-pyridin-2-yl-1H-benzoimidazol-2-yl)ethylamino]-pyrimidine-5-carbonitrile] was tested. Which IC50 did it give?
**A.** 797 nM

**Q.** For `Fc1ccc2nc(CNc3ncnc4[nH]cnc34)n(-c3ccccc3)c2c1` [Example 443, (6-Fluoro-1-phenyl-1H-benzoimidazol-2-ylmethyl)-(9H-purin-6-yl)amine], which IC50 is on record?
**A.** > 5000 nM
